Common to all, as to test: relative viability (nuclei count vs DMSO), 5 days (fraction); higher = more cells survive
Compound in experiment [1]: CS(=O)(=O)c1ccc(C(=O)Nc2ccc(Cl)c(-c3ccccn3)c2)c(Cl)c1 [Vismodegib] + NC(=O)Nc1cc(-c2cccc(F)c2)sc1C(=O)N[C@H]1CCCNC1 [AZD7762] (partner 0.2 µM)
The gist of the method:
(§1)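 One day after seeding in 1536-well plates, lung cancer cell lines were dosed by pin tool. Dosing was either single-drug or a fixed anchor-drug dose plus five library-drug doses (not always all listed) in √10 steps. After 5 days, nuclei were stained in one fix-and-stain step and counted on 4× images, and relative viability is the nuclei count of treated wells over that of vehicle wells, given as the median of duplicate plates.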

Compound in experiment [2]: CS(=O)(=O)c1ccc(-c2cnc(N)c(C(=O)Nc3ccccc3)n2)cc1 [VE-821] + CC(=O)c1c(C)c2cnc(Nc3ccc(N4CCNCC4)cn3)nc2n(C2CCCC2)c1=O [Palbociclib] (partner 0.5 µM)
The gist of the method:
as §1

Compound in experiment [3]: CS(=O)(=O)c1ccc(C(=O)Nc2ccc(Cl)c(-c3ccccn3)c2)c(Cl)c1 [Vismodegib] + COc1cccc2cc(-c3nc([C@H]4CC[C@H](C(=O)O)CC4)n4ncnc(N)c34)[nH]c12 [OSI-027] (partner 0.5 µM)
The gist of the method:
as §1

Compound in experiment [4]: CS(=O)(=O)c1ccc(-c2cnc(N)c(C(=O)Nc3ccccc3)n2)cc1 [VE-821] + Cc1nc(Nc2ncc(C(=O)Nc3c(C)cccc3Cl)s2)cc(N2CCN(CCO)CC2)n1 [Dasatinib] (partner 0.075 µM)
The gist of the method: as §1

For NCI-H1437, the relative viability was 1.02 in experiment [1] (first compound 0.08 µM); 1.11 in experiment [1] (first compound 0.253 µM); 1.1 in experiment [1] (first compound 0.8 µM); 1.02 in experiment [1] (first compound 2.53 µM); 1.02 in experiment [1] (first compound 8 µM); 0.305 in experiment [2] (first compound 0.08 µM). In addition, the relative viability amounted to 0.262 in experiment [2] (first compound 0.253 µM); 0.36 in experiment [2] (first compound 0.8 µM); 0.335 in experiment [2] (first compound 2.53 µM); 0.284 in experiment [2] (first compound 8 µM); 0.884 in experiment [3] (first compound 0.08 µM); 0.805 in experiment [3] (first compound 0.253 µM). The relative viability in experiment [3] (first compound 0.8 µM) turned out to be 0.905; in experiment [3] (first compound 2.53 µM), 0.858; in experiment [3] (first compound 8 µM) it was 0.804; in experiment [4] (first compound 0.08 µM), 0.479; in experiment [4] (first compound 0.253 µM), 0.357; in experiment [4] (first compound 0.8 µM), 0.386. Further, the relative viability in experiment [4] (first compound 2.53 µM) stood at 0.498; in experiment [4] (first compound 8 µM) it was 0.302.
As to NCI-H1651, the relative viability is 0.512 in experiment [1] (first compound 0.08 µM); 0.454 in experiment [1] (first compound 0.253 µM); 0.535 in experiment [1] (first compound 0.8 µM); 0.36 in experiment [1] (first compound 2.53 µM); 0.433 in experiment [1] (first compound 8 µM); 0.523 in experiment [2] (first compound 0.08 µM). Also, the relative viability in experiment [2] (first compound 0.253 µM) was 0.547; in experiment [2] (first compound 0.8 µM), 0.502; in experiment [2] (first compound 2.53 µM), 0.565; in experiment [2] (first compound 8 µM) it was 0.519; in experiment [3] (first compound 0.08 µM) it was 0.658; in experiment [3] (first compound 0.253 µM), 0.774. Also, the relative viability turned out to be 0.543 in experiment [3] (first compound 0.8 µM); 0.771 in experiment [3] (first compound 2.53 µM); 0.703 in experiment [3] (first compound 8 µM); 0.471 in experiment [4] (first compound 0.08 µM); 0.46 in experiment [4] (first compound 0.253 µM); 0.424 in experiment [4] (first compound 0.8 µM). In addition, the relative viability in experiment [4] (first compound 2.53 µM) amounted to 0.437; in experiment [4] (first compound 8 µM) it was 0.323.
With NCI-H1666, the relative viability came out at 0.878 in experiment [1] (first compound 0.08 µM); 0.772 in experiment [1] (first compound 0.253 µM); 0.882 in experiment [1] (first compound 0.8 µM); 0.751 in experiment [1] (first compound 2.53 µM); 0.827 in experiment [1] (first compound 8 µM); 0.635 in experiment [2] (first compound 0.08 µM). The relative viability in experiment [2] (first compound 0.253 µM) is 0.685; in experiment [2] (first compound 0.8 µM), 0.644; in experiment [2] (first compound 2.53 µM), 0.713; in experiment [2] (first compound 8 µM) it was 0.621; in experiment [3] (first compound 0.08 µM), 0.841; in experiment [3] (first compound 0.253 µM), 0.764. The relative viability is 0.786 in experiment [3] (first compound 0.8 µM); 0.858 in experiment [3] (first compound 2.53 µM); 0.958 in experiment [3] (first compound 8 µM); 0.841 in experiment [4] (first compound 0.08 µM); 0.78 in experiment [4] (first compound 0.253 µM); 0.816 in experiment [4] (first compound 0.8 µM). In addition, the values for the relative viability in experiment [4] (first compound 2.53 µM) and in experiment [4] (first compound 8 µM) were 0.695 and 0.578, respectively.
Regarding NCI-H1734, the relative viability stood at 0.575 in experiment [1] (first compound 0.08 µM); 0.447 in experiment [1] (first compound 0.253 µM); 0.552 in experiment [1] (first compound 0.8 µM); 0.556 in experiment [1] (first compound 2.53 µM); 0.488 in experiment [1] (first compound 8 µM); 0.462 in experiment [2] (first compound 0.08 µM). Also, the relative viability in experiment [2] (first compound 0.253 µM) stood at 0.363; in experiment [2] (first compound 0.8 µM) it was 0.325; in experiment [2] (first compound 2.53 µM), 0.337; in experiment [2] (first compound 8 µM) it was 0.532; in experiment [3] (first compound 0.08 µM), 0.603; in experiment [3] (first compound 0.253 µM), 0.598. For the same cell line, the relative viability in experiment [3] (first compound 0.8 µM) came out at 0.727; in experiment [3] (first compound 2.53 µM), 0.577; in experiment [3] (first compound 8 µM), 0.605; in experiment [4] (first compound 0.08 µM), 0.51; in experiment [4] (first compound 0.253 µM) it was 0.455; in experiment [4] (first compound 0.8 µM), 0.479. Moreover, the relative viability in experiment [4] (first compound 2.53 µM) stood at 0.425; in experiment [4] (first compound 8 µM) it was 0.33.
With NCI-H1755, the relative viability in experiment [1] (first compound 0.08 µM) was 0.453; in experiment [1] (first compound 0.253 µM) it was 0.568; in experiment [1] (first compound 0.8 µM), 0.515; in experiment [1] (first compound 2.53 µM), 0.449; in experiment [1] (first compound 8 µM), 0.41; in experiment [2] (first compound 0.08 µM) it was 0.429. For the same cell line, the relative viability in experiment [2] (first compound 0.253 µM) was 0.437; in experiment [2] (first compound 0.8 µM), 0.423; in experiment [2] (first compound 2.53 µM), 0.363; in experiment [2] (first compound 8 µM), 0.424; in experiment [3] (first compound 0.08 µM) it was 0.782; in experiment [3] (first compound 0.253 µM), 0.688. The relative viability was 0.73 in experiment [3] (first compound 0.8 µM); 0.689 in experiment [3] (first compound 2.53 µM); 0.634 in experiment [3] (first compound 8 µM); 0.455 in experiment [4] (first compound 0.08 µM); 0.452 in experiment [4] (first compound 0.253 µM); 0.372 in experiment [4] (first compound 0.8 µM). The relative viability was 0.413 in experiment [4] (first compound 2.53 µM) and 0.318 in experiment [4] (first compound 8 µM).
In the case of NCI-H1792, the relative viability in experiment [1] (first compound 0.08 µM) came out at 0.682; in experiment [1] (first compound 0.253 µM) it was 0.679; in experiment [1] (first compound 0.8 µM) it was 0.677; in experiment [1] (first compound 2.53 µM), 0.724; in experiment [1] (first compound 8 µM), 0.729; in experiment [2] (first compound 0.08 µM), 0.725. Moreover, the relative viability in experiment [2] (first compound 0.253 µM) worked out at 0.698; in experiment [2] (first compound 0.8 µM), 0.664; in experiment [2] (first compound 2.53 µM), 0.762; in experiment [2] (first compound 8 µM) it was 0.66; in experiment [3] (first compound 0.08 µM) it was 0.766; in experiment [3] (first compound 0.253 µM) it was 0.75. Further, the relative viability in experiment [3] (first compound 0.8 µM) turned out to be 0.606; in experiment [3] (first compound 2.53 µM) it was 0.679; in experiment [3] (first compound 8 µM) it was 0.623; in experiment [4] (first compound 0.08 µM), 0.981; in experiment [4] (first compound 0.253 µM) it was 0.89; in experiment [4] (first compound 0.8 µM), 0.731. Further, the relative viability worked out at 0.851 in experiment [4] (first compound 2.53 µM) and 0.727 in experiment [4] (first compound 8 µM).
As for NCI-H1793, the relative viability in experiment [1] (first compound 0.253 µM) came to 0.569; in experiment [1] (first compound 0.8 µM) it was 0.409; in experiment [1] (first compound 2.53 µM), 0.389; in experiment [1] (first compound 8 µM), 0.327; in experiment [2] (first compound 0.08 µM), 0.361; in experiment [2] (first compound 0.253 µM) it was 0.32. For the same cell line, the relative viability in experiment [2] (first compound 2.53 µM) amounted to 0.447; in experiment [2] (first compound 8 µM), 0.333; in experiment [3] (first compound 0.253 µM), 0.246; in experiment [3] (first compound 0.8 µM), 0.248; in experiment [3] (first compound 2.53 µM), 0.242; in experiment [3] (first compound 8 µM), 0.23. Further, the relative viability was 0.376 in experiment [4] (first compound 0.08 µM); 0.371 in experiment [4] (first compound 0.253 µM); 0.437 in experiment [4] (first compound 0.8 µM); 0.427 in experiment [4] (first compound 2.53 µM); 0.386 in experiment [4] (first compound 8 µM).

Source of the values: the supplement of paper PMC10307832.
